Values of other authors as cited in patent publication US9399681B2, “Amatoxin-conjugates with improved linkers” (Heldelberg Pharma GmbH, priority 2010, dated 2016).

Target: DNA-dependent RNA polymerase II of mammalian cells (Homo sapiens, UniProt P24928)
Details: background statement, non-covalent complex; read-out: KD of the complex between amanitin and RNA-polymerase II

Which Kd does the source give for amanitin here?
Its Kd is 3 nM.
